# ChEMBL document CHEMBL1132847, “Substituted 1,6-naphthyridines as human cytomegalovirus inhibitors: conformational requirements” (Bioorg Med Chem Lett, 2000)
# Tested on: Human betaherpesvirus 5
# Test: Concentration required to inhibit human cytomegalovirus by 50 percent
# Format: functional, organism-based
row,SMILES,IC50 [µg/mL]
1,CCOc1ccccc1CNC(=O)c1ccc2cnccc2n1,0.1
2,Cc1ccccc1CNC(=O)c1ccc2cnccc2n1,1
3,Cc1cncc2ccc(C(=O)NCc3ccccc3OC(C)C)nc12,0.0004
4,CC(C)Oc1ccccc1CNC(=O)c1ccc2cnccc2n1,0.005
5,O=C(NCc1ccccc1OC(F)(F)F)c1ccc2cnccc2n1,1
6,COc1ccccc1CN(C)C(=O)c1ccc2cnccc2n1,> 25

# Now from value to molecule:
row,IC50 [µg/mL],SMILES
1,0.5,O=C(NC1CCCOc2ccccc21)c1ccc2cnccc2n1 (stereo not drawn)
2,20,O=C(NC1CCOc2ccccc21)c1ccc2cnccc2n1 (stereo not drawn)
